Converted amounts (≈) assume the structure as drawn. “And” between values parts separate entries of the source, which are not always exact repeats. Identical values can stand only once.
Key:
[1] = tested on: methicillin-resistant Staphylococcus aureus (MRSA); assay: MIC measured by the method of Example 3; assay type: cell-based; conditions: strain not named, read-out: MIC against methicillin-resistant Staphylococcus aureus (MRSA)
Procedure: To prepare for MIC testing, individual colonies were isolated by streaking frozen glycerol material containing Staphylococcus or Pseudomonas spp. onto rich, non-selective, tryptic soy agar containing 5% sheep's blood (TSAB), and incubated at 37° C. for 18-24 hrs.
On the day of testing, primary cultures were started by scraping off 5-10 colonies from the TSAB plates. The material was suspended in ˜5 mL of cation adjusted Mueller Hinton Broth (CAMHB) in 14 mL culture tubes and incubated at 37° C. with aeration (200 rpm) for ˜2 hrs until the OD600 was ≧0.1.
Inoculum cultures were prepared by standardizing the primary cultures to OD600=0.1 and then adding 20 μL of the adjusted primary culture per 1 mL CAMHB for Pseudomonas and CAMHB plus 4% NaCl for MRSA so that the final inoculum density was ˜10^5 colony forming units per milliliter. Diluted inoculum cultures were used to inoculate 50 μL per well in 96 well broth microdilution assay plates. […]
Plates were incubated for 18-20 hours at 37° C. with aeration (200 rpm). Following incubation, growth was confirmed visually placing plates over a viewing apparatus (stand with a mirror underneath) and then OD600 was measured using a SpectraMax 340PC384 plate reader (Molecular Devices, Sunnyvale, Calif.). Growth was defined as turbidity that could be detected with the naked eye or achieving minimum OD600 of 0.1. […]

[2] = tested on: ceftazidime-resistant Pseudomonas aeruginosa #2545; assay type: in vivo; conditions: Pa #2545; CD-1 mice, IP inoculum, 2 SC doses at 1 and 6 hrs, 7 day survival
Procedure: (§1) In vivo efficacy of (I) was evaluated against strains of MRSA, and ceftazidime-resistant Pa and Klebsiella pneumonia (Kpn) in mouse septicemia, thigh and lung infections. Septicemia: CD-1 mice received lethal bacterial inocula IP, followed by 2 doses of antibiotics SC at 1 and 6 hrs post-inoculation. Dose calculated to protect 50% of the mice (PD50) was derived based on probit analysis of percentage survival. Thigh and lung infections: Thighs or lungs of neutropenic mice were inoculated with MRSA or Pa. Two treatment doses were given SC at 1 and 6 hrs post-inoculation. Tissues were harvested at ˜24 hrs post-inoculation and bacterial burdens quantified.
II. Methods • A. Animals: Six week-old, specific pathogen free, female CD-1 mice purchased from Charles River Laboratories (Wilmington, Mass.) were used for all studies after acclimation in Cubist animal facility. […] MIC was determined in MHB by standard CLSI microdilution. […] The survival of animals was recorded daily for 7 days. The antibiotic dose calculated to protect 50% of the mice (PD50) was derived based on probit analysis of percentage survival. • E. Mouse Thigh and Lung Infections: Mice were rendered neutropenic by two IP injections of cyclophosphamide 4 days (150 mg/kg) and 1 day (100 mg/kg) before bacterial inoculation. […] Tissue bacterial burdens were quantified by serial dilution and spiral plating of homogenates.

[3] = tested on: MRSA #712; assay: Thigh infection in neutropenic mice; assay type: in vivo, Staphylococcus aureus; conditions: MRSA #712 thigh infection, neutropenic mice, 2 SC doses at 1 and 6 hrs, 24 h, vs vehicle
Procedure: as §1
II. Methods • A. Animals: Six week-old, specific pathogen free, female CD-1 mice purchased from Charles River Laboratories (Wilmington, Mass.) were used for all studies after acclimation in Cubist animal facility. All animal procedures were approved by the Cubist Institutional Animal Care and Use Committee. • B. Bacteria and In Vitro Susceptibility Testing: MRSA #712, Pseudomonas aeruginosa #2245 and #2545, and Klebsiella pneumoniae #573 are clinical isolates; Pseudomonas aeruginosa #44 is an ATCC strain (ATCC#27853). MIC was determined in MHB by standard CLSI microdilution. […] The survival of animals was recorded daily for 7 days. The antibiotic dose calculated to protect 50% of the mice (PD50) was derived based on probit analysis of percentage survival. • E. Mouse Thigh and Lung Infections: Mice were rendered neutropenic by two IP injections of cyclophosphamide 4 days (150 mg/kg) and 1 day (100 mg/kg) before bacterial inoculation. […] Tissue bacterial burdens were quantified by serial dilution and spiral plating of homogenates.

[4] = tested on: ceftazidime-resistant Pseudomonas aeruginosa #2545; assay: Lung infection in neutropenic mice; assay type: in vivo; conditions: Pa #2545 lung infection, neutropenic mice
Procedure: as §1
(§2) II. Methods • A. Animals: Six week-old, specific pathogen free, female CD-1 mice purchased from Charles River Laboratories (Wilmington, Mass.) were used for all studies after acclimation in Cubist animal facility. All animal procedures were approved by the Cubist Institutional Animal Care and Use Committee. • B. Bacteria and In Vitro Susceptibility Testing: MRSA #712, Pseudomonas aeruginosa #2245 and #2545, and Klebsiella pneumoniae #573 are clinical isolates; Pseudomonas aeruginosa #44 is an ATCC strain (ATCC#27853). MIC was determined in MHB by standard CLSI microdilution. Comparator Antibiotics Used in Animal Studies: Vancomycin hydrochloride USP was purchased from Hospira (Lake Forest, Ill.); ceftazidime hydrate from Sigma; Primaxin (imipenem and cilastatin) from Merck; ceftaroline was synthesized at a CRO. • D. Mouse Septicemia: Mice received lethal inocula of bacteria in 6% hog gastric mucin intraperitoneally (IP), followed by two treatment doses of antibiotics via subcutaneous (SC) administration at 1 and 6 hrs post-inoculation. The survival of animals was recorded daily for 7 days. The antibiotic dose calculated to protect 50% of the mice (PD50) was derived based on probit analysis of percentage survival. • E. Mouse Thigh and Lung Infections: Mice were rendered neutropenic by two IP injections of cyclophosphamide 4 days (150 mg/kg) and 1 day (100 mg/kg) before bacterial inoculation. Thigh or lung infection was induced by an intramuscular injection of 0.2 mL or intranasal inoculation of 0.1 mL inoculum preparation from an overnight bacterial culture into left thigh or nares. Tissues from one group of mice receiving no treatment (No Rx) were harvested at 1 hr for determination of baseline of bacterial burden. The remaining mice received two treatment doses of vehicles or antibiotics given SC at 1 and 6 hrs post-inoculation. Tissues from the treated mice were harvested at ˜24 hrs post-inoculation. Tissue bacterial burdens were quantified by serial dilution and spiral plating of homogenates.

[5] = tested on: ceftazidime-susceptible Pseudomonas aeruginosa #2245; assay: Lung infection in neutropenic mice; assay type: in vivo; conditions: Pa #2245 lung infection, 3-log CFU reduction vs vehicle at 24 h
Procedure: as §1, §2

[6] = tested on: ceftazidime-susceptible Pseudomonas aeruginosa #44 (ATCC#27853); assay: Lung infection in neutropenic mice; assay type: in vivo; conditions: Pa #44 lung infection
Procedure: as §1, §2

[7] = tested on: Pa2086 (mucoid strain); assay: MIC, broth microdilution (Example 5), Table 3; assay type: cell-based; conditions: Pseudomonas aeruginosa
Procedure: (§3) II. […] MIC90 values were defined as the concentration required to inhibit growth of 90% of the strains tested. • C. SAR was performed using the following isolates: Sa399 (ATCC43300, MRSA), Sa1721 (NARSA NRS384, MRSA USA 300), Pa44 (ATCC27853), and 4 clinical isolates (Pa2241, Pa2086 (mucoid strain), Pa2694 and Pa2698). • D. The in vitro antibacterial activity of the compound of formula (I) was further evaluated in an expanded MRSA and Pa MIC panel (see Table 4 and FIG. 6).

[8] = tested on: Pa2241; assay: MIC, broth microdilution (Example 5), Table 3; assay type: cell-based; conditions: Pseudomonas aeruginosa
Procedure: as §3

[9] = tested on: Pa2694; assay: MIC, broth microdilution (Example 5), Table 3; assay type: cell-based; conditions: Pseudomonas aeruginosa
Procedure: as §3

[10] = tested on: Pa2698; assay: MIC, broth microdilution (Example 5), Table 3; assay type: cell-based; conditions: Pseudomonas aeruginosa
Procedure: as §3

[11] = tested on: Pa44 (ATCC27853); assay: MIC, broth microdilution (Example 5), Table 3; assay type: cell-based; conditions: Pseudomonas aeruginosa
Procedure: as §3

[12] = tested on: Sa1721 (NARSA NRS384, MRSA USA 300); assay: MIC, broth microdilution (Example 5), Table 3; assay type: cell-based; conditions: Staphylococcus aureus
Procedure: as §3

[13] = tested on: Sa399 (ATCC43300, MRSA); assay: MIC, broth microdilution (Example 5), Table 3; assay type: cell-based; conditions: Staphylococcus aureus
Procedure: as §3

[14] = 2 SC doses at 1 and 6 hrs, 24 h, vs vehicle
[15] = 3-log CFU reduction vs vehicle at 24 h

CO/N=C(\C(=O)N[C@@H]1C(=O)N2C(C(=O)[O-])=C(C[n+]3ccc(N)c(NC(=O)Nc4ccc(CCNC(=N)N)cc4)c3)CS[C@H]12)c1nc(N)sc1Cl [(I)]
MIC [1]: 1 to 2 µg/mL (≈ 1.35 to 2.69 µM)
Septicemia PD50 (± SE) [2]: <10.4 mg/kg
Thigh (T) ED−2log [3]: 68.9 mg/kg and 68.9 (T) mg/kg
Lung (L) ED−2log [4, 14]: 6.7 (L) mg/kg
ED−3 log [4, 15]: 11.4 mg/kg
ED−3 log [5]: 5.2 mg/kg
Lung (L) ED−2log [6, 14]: 1.8 (L) mg/kg
ED−3 log [6, 15]: 4.1 mg/kg
MIC [7]: 8 µg/mL (≈ 10.8 µM)
MIC [8]: 1 µg/mL (≈ 1.35 µM)
MIC [9]: 8 µg/mL (≈ 10.8 µM)
MIC [10]: 8 µg/mL (≈ 10.8 µM)
MIC [11]: 2 µg/mL (≈ 2.69 µM)
MIC [12]: 8 µg/mL (≈ 10.8 µM)
MIC [13]: 2 µg/mL (≈ 2.69 µM)
